Source: patent US20250134901A1, “PHARMACEUTICAL COMPOSITION CONTAINING COMBINATION OF MELOXICAM AND RIZATRIPTAN AND PROCESS OF PREPARATION THEREOF” (Alembic Pharmaceuticals Limited, priority 2021, published 2025)
In brackets after ≈: the same amount, converted by molar mass. Like-named read-outs stand apart in the source and are kept apart here.

Assay: Solubility of meloxicam API in different pH buffered solutions
Type: physicochemical
Conditions: read-out: Meloxicam API Solubility (BCS)

- solubility (aqueous buffer, pH 4.5 Acetate buffer): 30 µg/mL (≈ 85.4 µM)
- solubility (aqueous buffer, pH 6.8 Phosphate Buffer): 2700 µg/mL (≈ 7680 µM)
- solubility (aqueous buffer, pH 7.5 Phosphate buffer): 110 µg/mL (≈ 313 µM)
- solubility (simulated gastric fluid, 0.01N HCl (pH 2.0)): 20 µg/mL (≈ 56.9 µM)
SMILES: Cc1cnc(NC(=O)C2=C(O)c3ccccc3S(=O)(=O)N2C)s1 [Meloxicam, 4-hydroxy-2-methyl-N-(5-methyl-2-thiazolyl)-2H-1,2-benzothiazine-3-carboxamide-1,1-dioxide]
